The source of these data is patent publication US20120220577A1, “GLYCINE B ANTAGONISTS” (Merz Pharma GmbH & Co KgaA, priority 2009, published 2012).

In series [1] the target is T1, glycine binding pocket of the NMDA receptor (Rattus norvegicus, UniProt P35439).
T1 construct: For isolation of the cell membranes, the cortices are homogenized; from tissue; host or cells: rat cerebral cortex membranes (male Sprague-Dawley)
The series is described as follows: [3H]MDL-105,519 displacement studies (rat cortical membranes). Particulars: displacement of 2 nM [3H]-MDL-105,519, rat cortical membranes; read-out: NMDA-MDL 105519-r-CTX - IC50. How it is done: Anaesthetised male Sprague-Dawley rats (200-250 g, Janvier, Le Genest-Isle, France) are decapitated and their brains removed rapidly. […] For isolation of the cell membranes, the cortices are homogenized in 20 volumes of ice-cold 0.32 M sucrose (Sigma-Aldrich, Taufkirchen, Germany) using a glass-Teflon homogenizer. The homogenate is centrifuged at 1000×g for 10 minutes, the pellet is discarded and the supernatant centrifuged at 20,000×g for 20 minutes. The resulting pellet is re-suspended in 20 volumes of distilled water and centrifuged for 20 minutes at 8000×g. The supernatant and the buffy coat are then centrifuged three times (48,000×g for 20 minutes) in the presence of 50 mM Tris-HCl, pH 8.0 (assay buffer). All centrifugation steps are carried out at 4° C. After resuspension in 5 volumes of 50 mM Tris-HCl, pH 7.5, the membrane suspension is frozen rapidly at −80° C. On the day of assay, the membranes are thawed and washed four times by resuspension in 50 mM Tris-HCl, pH 7.5, and centrifugation at 48,000×g for 20 minutes. The final pellet is suspended in assay buffer. […] The final protein concentration used for our studies is 400 μg/ml.
A robotic system designed for binding assays (Tecan Deutschland GmbH, Crailsheim, Germany) is loaded with the membrane solution, solutions for bound control (buffer/DMSO 20%), unlabeled glycine (1 mM) for evaluation of non-specific binding, all compounds to be tested (at 20-fold concentrations), radioligand and respective 96-well plates.
The protein/receptor concentration is held constant whereas the amount of specific bound radioligand is determined using increasing concentrations of ligand.
Firstly, the assay plates are loaded with membrane solution and are shaken at 4° C. The mother plates are then prepared by pipetting the compounds into assay buffer/20% DMSO to obtain the desired final concentrations (dose response curve with five different concentrations, e.g. 10, 3, 1, 0.3, and 0.1 μM). After transferring radioligand into the assay plates, the compounds are added (including the bound and the non-specific binding control). The final DMSO concentration is 1%. The assay plates are incubated and shaken at 4° C. for 1 h, before the mixture is exhausted as rapidly as possible via a vacuum manifold using the Multiscreen HTS glass fibre (type B) filter plates (Millipore, Schwalbach, Germany) under a constant vacuum of 450 mbar. The membranes are washed four times with cold assay buffer ([…]). 50 μL of Ultima Gold scintillation cocktail (PerkinElmer, Rodgau-Jügesheim, Germany) is added to the wet filter plates and incubated at room temperature overnight before counting the disintegration per minutes using a liquid scintillation counter (MicroBeta, PerkinElmer, Rodgau-Jügesheim, Germany).
The residual radioactivity after displacement of the test compound (n=5) is then corrected with respect to the set controls.

Series [2] concerns the target NMDA receptor glycine B site (Rattus norvegicus, UniProt P35439). The series is described as follows: Calcium FLIPR studies, rat cortical neurons (NMDA/D-Serine induced intracellular calcium). The conditions noted are these: rat cortical neurons; stimulation with 30 μM NMDA and 1 μM D-Serine; antagonist pre-incubated 10 min; read-out: NMDA-FLIPR-rCTX-NAM - IC50. Format: cell-based. On the set-up: Primary neurons are prepared from cortices of embryonal rats at day 17 of pregnancy; endogenous in cells; host or cells: primary rat cortical neurons (E17, 11-13 DIV). How it is done: Antagonistic potencies of the test compounds are functionally evaluated using electrophysiological whole cell patch-clamp recordings and/or fluorometric intracellular Ca^2+-imaging (FLIPR) screens.
Sprague-Dawley rat embryos (E 17) are decapitated and neocortices are dissected, trypsinized and carefully triturated. The cell suspension is plated on poly-D-lysine pre-coated 96-well Plates (Greiner, Frickenhausen, Germany) at a cell density of 55.000 cells/well. The neurons are cultivated in Neurobasal media containing B27-Supplement and […] L-Glutamine (Biochrom) at 37° C. in a humidified atmosphere of 5% CO2/95% air. Medium is exchanged completely at day 4 and to 50% on day 7. At the time of experiments neurons are 11-13 days in vitro.
The increase of intracellular calcium after stimulation with 30 μM NMDA and 1 μM D-Serine is measured using the fluorometric imaging plate reader (FLIPR) and the Calcium-4-Kit (both Molecular Devices, Ismaning, Germany). Prior to addition of agonist or antagonist (5 different concentrations, n=5) the medium is aspirated and cells are washed once before loading with 150 μL of loading buffer (1 h at room temperature), consisting of Ca-4 sensitive dye reconstituted in extracellular bath solution, pH 7.3. Subsequently, plates are transferred to FLIPR to detect increases in intracellular calcium after the addition of agonist, measured as relative fluorescence units (RFU). Antagonists are pre-incubated with the cells for 10 min at room temperature before the addition of the agonist and co-agonist.
The fluorescence signal increase after addition of agonist reflects the increase of intracellular calcium. Inconsistencies in the amount of cells per well are normalised by using the spatial uniformity correction of the FLIPR software (Screenworks, Molecular Devices). The mean of replicated temporal data (n=5) is calculated and used for graphical representation. For the evaluation of the antagonistic potency, the calcium changes in response to different concentrations of antagonist are determined using an area under the curve (AUC) calculation. All responses (RFU-values) are determined as percentage of control (=maximum response at 30 μM NMDA and 1 μM D-Serine). IC50 values are calculated according the four parameter logistic equation using GraFit (Erithacus Software).

SMILES strings stand for the structures. Counter-ions that a name gives are not always drawn. Bounds are passed on as bounds.

Compound `CNC(=O)COc1cc(CN)ccc1NC(=O)COc1cc(C(=O)O)cc2cc(Cl)cc(Cl)c12` (as salt: hydrochloride) [Example 116, 4-[(4-Aminomethyl-2-methylcarbamoylmethoxy-phenylcarbamoyl)-methoxy]-5,7-dichloro-naphthalene-2-carboxylic acid] gave a melting point of 233 to 235 °C.
For the compound `NCc1cc(OCC(=O)O)ccc1NC(=O)COc1cc(C(=O)O)cc2cc(Cl)cc(Cl)c12` (as salt: trifluoroacetate) [Example 97, 4-[(2-Aminomethyl-4-carboxymethoxy-phenylcarbamoyl)-methoxy]-5,7-dichloro-naphthalene-2-carboxylic acid], the melting point was > 169 °C.
Consider `COc1ccccc1N1CCC(Oc2cc(C(=O)O)cc3cc(Cl)cc(Cl)c23)C1=O` (stereo not shown) [Example 75, 5,7-Dichloro-4-[1-(2-methoxy-phenyl)-2-oxo-pyrrolidin-3-yloxy]-naphthalene-2-carboxylic acid], for which the IC50 is 1270 nM in series [1] and 4960 nM in series [2].
Take `NCc1ccc(OCC(=O)O)c(NC(=O)COc2cc(C(=O)O)cc3cc(Cl)cc(Cl)c23)c1` [Example 79, 4-[(5-Aminomethyl-2-carboxymethoxy-phenylcarbamoyl)-methoxy]-5,7-dichloro-naphthalene-2-carboxylic acid]: the results for the IC50 in series [1] and in series [2] were 89 nM and 1650 nM, respectively.
For `CC(C)(Oc1ccccc1NC(=O)COc1cc(C(=O)O)cc2cc(Cl)cc(Cl)c12)C(=O)O` [Example 81, 4-{[2-(1-Carboxy-1-methyl-ethoxy)-phenylcarbamoyl]-methoxy}-5,7-dichloro-naphthalene-2-carboxylic acid], the figures for the IC50 in series [1] and in series [2] were 1190 nM and 11300 nM, respectively.
In the same order, the values of `O=C(COc1cc(C(=O)O)cc2cc(Cl)cc(Cl)c12)Nc1ccc(Cc2nnn[nH]2)cc1` [Example 86, 5,7-Dichloro-4-{[4-(1H-tetrazol-5-ylmethyl)-phenylcarbamoyl]-methoxy}-naphthalene-2-carboxylic acid] are 1840 nM and 5750 nM.
Turning to `O=C(COc1cc(C(=O)O)cc2cc(Cl)cc(Cl)c12)Nc1ccc(OCc2nnn[nH]2)cc1` [Example 88, 5,7-Dichloro-4-{[4-(1H-tetrazol-5-ylmethoxy)-phenylcarbamoyl]-methoxy}-naphthalene-2-carboxylic acid], the IC50 in series [1] is 1540 nM; in series [2], 3800 nM.
For `O=C(COc1cc(C(=O)O)cc2cc(Cl)cc(Cl)c12)Nc1cccc(Cc2nnn[nH]2)c1` [Example 90, 5,7-Dichloro-4-{[3-(1H-tetrazol-5-ylmethyl)-phenylcarbamoyl]-methoxy}naphthalene-2-carboxylic acid], in that order: 550 nM and 2680 nM.
As for `CNC(=O)COc1ccccc1NC(=O)COc1cc(C(=O)O)cc2cc(Cl)cc(Cl)c12` [Example 91, 5,7-Dichloro-4-[(2-methylcarbamoylmethoxy-phenylcarbamoyl)-methoxy]-naphthalene-2-carboxylic acid], the IC50 in series [1] was found to be 1270 nM; in series [2], 10800 nM.
For `O=C(COc1cc(C(=O)O)cc2cc(Cl)cc(Cl)c12)Nc1cccc(OCc2nnn[nH]2)c1` [Example 92, 5,7-Dichloro-4-{[3-(1H-tetrazol-5-ylmethoxy)-phenylcarbamoyl]-methoxy}-naphthalene-2-carboxylic acid], the IC50 in series [1] is 656 nM; in series [2] it was 3840 nM.
In the same order, the values of `NC(=O)COc1ccccc1NC(=O)COc1cc(C(=O)O)cc2cc(Cl)cc(Cl)c12` [Example 95, 4-[(2-Carbamoylmethoxy-phenylcarbamoyl)-methoxy]-5,7-dichloro-naphthalene-2-carboxylic acid] are 641 nM and 7170 nM.
Regarding `O=C(O)c1cc(OCC(=O)N2c3ccccc3CC2c2nnn[nH]2)c2c(Cl)cc(Cl)cc2c1` (stereo not shown) [Example 99, 5,7-Dichloro-4-{2-oxo-2-[2-(1H-tetrazol-5-yl)-2,3-dihydro-indol-1-yl]-ethoxy}-naphthalene-2-carboxylic acid], the IC50 amounted to 909 nM in series [1] and 5950 nM in series [2].
For `O=C(COc1cc(C(=O)O)cc2cc(Cl)cc(Cl)c12)Nc1ccccc1Cc1nnn[nH]1` [Example 100, 5,7-Dichloro-4-{[2-(1H-tetrazol-5-ylmethyl)-phenylcarbamoyl]-methoxy}-naphthalene-2-carboxylic acid], the results for the IC50 in series [1] and in series [2] were 559 nM and 4100 nM, respectively.
Consider `O=C(COc1cc(C(=O)O)cc2cc(Cl)cc(Cl)c12)Nc1cccc(-c2nnn[nH]2)c1` [Example 101, 5,7-Dichloro-4-{[3-(1H-tetrazol-5-yl)-phenylcarbamoyl]-methoxy}-naphthalene-2-carboxylic acid], for which the figures for the IC50 in series [1] and in series [2] were 344 nM and 2270 nM, respectively.
In the same order, the values of `O=C(COc1cc(C(=O)O)cc2cc(Cl)cc(Cl)c12)NCc1cccnc1` [Example 104, 5,7-Dichloro-4-{[(pyridin-3-ylmethyl)-carbamoyl]-methoxy}-naphthalene-2-carboxylic acid] are 186 nM and 1390 nM.
Consider `O=C(COc1cc(C(=O)O)cc2cc(Cl)cc(Cl)c12)NCc1ccncc1` [Example 105, 5,7-Dichloro-4-{[(pyridin-4-ylmethyl)-carbamoyl]-methoxy}-naphthalene-2-carboxylic acid], for which the IC50 in series [1] amounted to 1030 nM; in series [2] it was 7090 nM.
With `O=C(COc1cc(C(=O)O)cc2cc(Cl)cc(Cl)c12)NCc1cccc(-c2nnn[nH]2)c1` [Example 107, 5,7-Dichloro-4-{[3-(1H-tetrazol-5-yl)-benzylcarbamoyl]-methoxy}-naphthalene-2-carboxylic acid], the results for the IC50 in series [1] and in series [2] were 139 nM and 1440 nM, respectively.
As for `O=C(COc1cc(C(=O)O)cc2cc(Cl)cc(Cl)c12)NCc1ccccc1Cc1nnn[nH]1` [Example 118, 5,7-Dichloro-4-{[2-(1H-tetrazol-5-ylmethyl)-benzylcarbamoyl]-methoxy}-naphthalene-2-carboxylic acid], the melting point was 239 to 240 °C.
With `O=C(COc1cc(C(=O)O)cc2cc(Cl)cc(Cl)c12)NCc1cccc(Cc2nnn[nH]2)c1` [Example 119, 5,7-Dichloro-4-{[3-(1H-tetrazol-5-ylmethyl)-benzylcarbamoyl]-methoxy}-naphthalene-2-carboxylic acid], the melting point was 243 to 244 °C.

The melting point is the temperature, or range, at which the solid turns liquid. One may read the IC50 as the point on the concentration scale where inhibition reaches its midpoint.
